Data reported in ChEMBL document CHEMBL4732023, “Using NMR to identify binding regions for N and C-terminal Hsp90 inhibitors using Hsp90 domains” (RSC Med Chem, 2021).
≈ marks a conversion by molar mass, not a printed value. Calls of active or inactive are those of the source. The rule behind the calls is not given here. Where a SMILES comes first, the peptide text is derived from it. [ ]: non-standard residue; d: D form. dAla(4-thiazolyl) = N[C@H](Cc1cscn1)C(=O)O; dDip = N[C@@H](C(=O)O)C(c1ccccc1)c1ccccc1; NMeV = CN[C@H](C(=O)O)C(C)C

Experiments:
Heat shock protein HSP90 [1] = molecular target: T1, Heat shock protein HSP90 (Homo sapiens, UniProt P07900+P08238); assay: Binding affinity to HSP90 C-terminal domain (unknown origin) by biochemical assay; type: protein assay
Heat shock protein HSP90 [2] = molecular target: T1, Heat shock protein HSP90; assay: Binding affinity to recombinant His6-tagged HSP90 C-domain (unknown origin) (553 to 732 residues) expressed in Escherichia coli BL21 (DE3) (DNAY) cells assessed as chemical shift perturbation at protein to compound ratio of 1:1.6 by 15N-1H TROSY-HSQC NMR spectroscopy
Heat shock protein HSP90 [3] = molecular target: T1, Heat shock protein HSP90; assay: Binding affinity to recombinant His6-tagged HSP90 C-domain (unknown origin) (553 to 732 residues) expressed in Escherichia coli BL21 (DE3) (DNAY) cells assessed as dissociation constant by 15N-1H TROSY-HSQC NMR spectroscopy
[4] = Solubility of compound in water; type: physicochemical; details: buffer

SMILES	Kd (Heat shock protein HSP90 [1]) [µM]	Activity (Heat shock protein HSP90 [2])	Kd (Heat shock protein HSP90 [3]) [µM]	solubility [4] [µM]	Activity (Heat shock protein HSP90 [3])
NCCCC[C@@H]1NC(=O)[C@H](Cc2ccccc2)NC(=O)[C@H](Cc2ccc(O)cc2)NC(=O)[C@H](CO)NC(=O)[C@H](CC(N)=O)NC1=O (cyclo(KNSYF))	45	Active	19.8		
CC(C)C[C@@H]1NC(=O)[C@H](C(C)C)N(C)C(=O)[C@@H](CC(C)C)NC(=O)[C@@H](Cc2cscn2)NC(=O)[C@@H](C(c2ccccc2)c2ccccc2)NC1=O (cyclo(L[dDip][dAla(4-thiazolyl)][dL][NMeV]))				200 (≈ 143 µg/mL)	Active
COc1cc([C@H]2Oc3cc([C@H]4Oc5cc(O)cc(O)c5C(=O)[C@@H]4O)ccc3O[C@@H]2CO)ccc1O [SILYBIN A]	500				
